The text below walks through data of patent US20230272357A1, “METHODS OF GENOME EDITING INCLUDING CONTROLLED OPENING OF CHROMATIN” (Wisconsin Alumni Research Foundation, priority 2021, published 2023).

Experiment [1] has as its system HIST1H2BJ-GFP, AAVS1 (S8, S10), EMX1, VEGFA, TRAC (S2, S3) loci. The experiment is described as follows: Deep sequencing (NGS) of edited iPSCs at open and closed chromatin loci. It is filed as cell-based, human. As for the experimental part: Next Generation Sequencing of genomic DNA: DNA was isolated from iPSCs by adding 50 μL of DNA QuickExtract™/well (Epicentre) following treatment by Accutase™ and centrifugation. The DNA extract solution was incubated at 65° C. for 15 min, 68° C. for 15 min, and finally 98° C. for 10 min. Genomic PCR was performed according to the manufacturer's instructions using Q5 Hot Start polymerase (NEB). Sequencing indices were added with a second round of PCR using indexing primers (IDT), followed by a purification using AMPure XP magnetic bead purification kit (Beckman Coulter). Samples were pooled and sequenced on an Illumina® MiniSeq at a run length of 1×150 bp or 2×150 bp according to the manufacturer's instructions. Analysis was performed using CRISPR RGEN.
Multiple gRNA sequences targeting different sites of open (HIST1H2BJ and AAVS1) and closed chromatin (TRAC, VEGFA, EMX1) were selected to investigate if the observed TSA-induced increase in gene-editing efficiency at HIST1H2BJ-GFP locus is specific to the gRNA sequence or the chromatin state of the target locus. To gain a more detailed analysis of gene-edited events in iPSCs, deep sequencing was performed on edited cells obtained after TSA treatment. The genomic DNA was harvested on day 6 after Cas9 RNP delivery. PCR using primers flanking the gRNA target sites was then performed and prepared for next-generation sequencing (NGS) using the Illumina® MiniSeq™ system. […] Corroborating with this observation, we noted an increase in the local chromatin accessibility at the on-target sites upon TSA treatment (Data not shown). […] The highest frequency of indels was found three to four nucleotides upstream from the protospacer adjacent motif (PAM) sequence, consistent with reports of type II CRISPR systems (FIG. 2C,E). Furthermore, edited reads contained higher deletion events (approximately 50-80%) than insertion events (approximately 5-20%). Similar observations were reported in deep sequencing analysis of human cells edited by S. Pyogenes Cas9 (SpyCas9). The percentage of edited reads with Single Nucleotide Polymorphisms (SNPs) decreased upon chromatin decondensation via TSA treatment (FIG. 2F), while the relative distribution of SNPs around the cut site remained similar (data not shown). This is consistent with reports that indicate nucleosomes are enriched in SNPs.

The test system of experiment [2] is iPSCs. The experiment is described as follows: Single-cell ATAC sequencing, local chromatin accessibility. The experiment is classed as cell-based, human. To be noted: upon TSA treatment, data not shown. As for the experimental part: Briefly, 1,50,000 cells were added to a 2 mL microcentrifuge tube and centrifuged at 300 g for 45 min at 4° C. The supernatant was removed without disrupting the cell pellet, and 100 μL chilled Lysis Buffer (10 mM Tris-HCl (pH 7.4), 10 mM NaCl, 3 mM MgCl2, 0.1% Tween-20, 0.1% Nonidet® P40 Substitute, 0.01% digitonin and 1% BSA) was added and mixed 10 times. The microcentrifuge tube was then incubated on ice for 5 min. Following lysis, 1 ml chilled Wash Buffer (10 mM Tris-HCl (pH 7.4), 10 mM NaCl, 3 mM MgCl2, 0.1% Tween-20 and 1% BSA) was added and the resulting solution was mixed 5 times. Nuclei were centrifuged at 500 g for 5 min at 4° C. and the supernatant was removed without disrupting the nuclei pellet. Nuclei were resuspended in chilled Diluted Nuclei Buffer (10× Genomics; 2000153) at approximately 6,000 nuclei per μL. The resulting nuclei concentration was then determined with a Countess® II FL Automated Cell Counter using trypan blue inclusion. Nuclei were then immediately used to generate scATAC-seq libraries according to the Chromium Single Cell ATAC Reagent Kits User Guide v1.1 (10× Genomics; 000209 Rev D). Libraries were sequenced using the Illumina NovaSeq 6000 system using S1 flow cell and target depth of 30k-37k reads/nuclei. FASTQ files were aligned with Cellranger ATAC 2.0 to custom reference Human GRCh38 genome. […]

Setting [3] is: edited iPSCs obtained after TSA treatment, all loci.
Where [4] appears, read: seven loci, change upon TSA treatment.

“Also recorded” adds a separate entry of the source.

Take `CC(/C=C/C(=O)NO)=C\[C@@H](C)C(=O)c1ccc(N(C)C)cc1` [TSA, Trichostatin A]: in experiment [1] (setting [3]), the “Deletion events in edited reads” value was 50-80% and the “Insertion events in edited reads” value is reported as 5-20%. Further, in experiment [1] (setting [4]), the “% edited reads with insertions” value is on record as “no significant change; also recorded: did not undergo significant change” and the “% edited reads with only SNPs” value is recorded as “decreased”. Besides, in experiment [1] (seven open and closed loci, day 6, TSA vs 0 ng/mL), the “% editing efficiency by deep sequencing” value is “increased”. In experiment [2], the “Local chromatin accessibility at the off-target sites” value is recorded as “no significant increase” and the “Local chromatin accessibility at the on-target sites” value is given as “increase”.
